The results in this text go back to patent publication US12600709B2, “Nonpeptide somatostatin type 5 receptor agonists and uses thereof” (Crinetics Pharmaceuticals, Inc., priority 2019, dated 2026).

Where two headings read alike, the source gives them in different places.

Assay [1] addresses T1, human somatostatin receptor subtype 5 (Homo sapiens, UniProt P35346).
T1 construct: expressed in transfected cells
As to the kind of experiment: cAMP assay for SST5R (inhibition of cAMP in CHO-K1 cells). It counts as cell-based. As to conditions: for EC50: inhibition of cAMP via human SST5 receptor, read-out: SST5 potency; for Fold selectivity for SST5 vs SST2: class symbols, SST5 receptor over SST2 receptor. The procedure, abridged:
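CHO-K1 cells stably expressing human SSTR5 were treated 20 min at 37 °C with compounds plus 1.6 μM NKH477 in HBSS, 0.5 mM HEPES pH 7.4, 0.1% BSA, 0.2 mM IBMX. Lysate cAMP measured by HTRF against a standard curve; EC50 from cAMP-versus-concentration plots.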
Background: Cyclic AMP is a second messenger, typically raised through Gs and lowered through Gi signalling.

The target in assay [2] is T2, human somatostatin receptor subtype 2 (Homo sapiens, UniProt P30874).
T2 construct: expressed in transfected cells
As to the kind of experiment: cAMP assay for SST2R (inhibition of cAMP in CHO-K1 cells). As to conditions: Table B; inhibition of cAMP via human SST2 receptor; read-out: SST2 potency. It is filed as cell-based. Put shortly:
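CHO-K1 cells stably expressing human SSTR2, plated 4 days prior, treated 20 min at 37° C with 1.6 μM NKH477 plus compound dilutions in HBSS/HEPES pH 7.4/0.1% BSA/0.2 mM IBMX. Lysate cAMP measured by HTRF against standard curve; EC50 from concentration-response.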

T1 sequence (P35346 whole entry): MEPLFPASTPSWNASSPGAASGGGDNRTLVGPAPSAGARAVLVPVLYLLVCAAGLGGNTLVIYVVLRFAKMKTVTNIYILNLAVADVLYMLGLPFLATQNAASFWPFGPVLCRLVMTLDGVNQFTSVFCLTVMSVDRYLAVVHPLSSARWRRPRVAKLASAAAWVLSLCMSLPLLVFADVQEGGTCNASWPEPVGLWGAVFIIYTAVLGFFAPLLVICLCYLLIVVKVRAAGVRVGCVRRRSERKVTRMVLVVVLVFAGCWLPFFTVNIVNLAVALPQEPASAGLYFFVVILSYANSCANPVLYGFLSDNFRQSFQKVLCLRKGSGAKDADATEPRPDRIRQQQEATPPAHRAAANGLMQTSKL
T2 sequence (P30874 whole entry): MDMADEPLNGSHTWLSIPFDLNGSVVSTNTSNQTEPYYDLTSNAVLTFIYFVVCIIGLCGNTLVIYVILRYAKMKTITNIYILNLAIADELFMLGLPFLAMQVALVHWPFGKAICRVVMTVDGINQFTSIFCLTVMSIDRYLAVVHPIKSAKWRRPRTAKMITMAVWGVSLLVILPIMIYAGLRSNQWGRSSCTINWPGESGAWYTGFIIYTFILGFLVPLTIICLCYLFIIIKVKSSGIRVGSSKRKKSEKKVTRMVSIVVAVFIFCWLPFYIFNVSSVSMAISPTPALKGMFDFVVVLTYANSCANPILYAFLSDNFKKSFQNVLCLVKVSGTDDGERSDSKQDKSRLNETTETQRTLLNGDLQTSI

Take `Cc1ncc(C(=O)N[C@@H](C)C2CC2)c(N2CC[C@](C)(N)C2)c1-c1ccc(F)c(Cl)c1` [1-289, 4-[(3S)-3-amino-3-methylpyrrolidin-1-yl]-5-(3-chloro-4-fluorophenyl)-N-[(1S)-1-cyclopropylethyl]-6-methylpyridine-3-carboxamide]: the EC50 in assay [1] (Table A) is less than 10 nM; in assay [1] (Table B), less than 10 nM; in assay [2] it was 100 to 1000 nM. Also, the “Fold selectivity for SST5 vs SST2” value in assay [1] (Table B) is “+++ (+++=>500)”.
For `Cc1cccc2[nH]c(-c3cncc(C(=O)NCC(F)(F)F)c3N3CC[C@](C)(N)C3)nc12` [2-7, 4-[(3S)-3-amino-3-methylpyrrolidin-1-yl]-5-(4-methyl-1H-1,3-benzodiazol-2-yl)-N-(2,2,2-trifluoroethyl)pyridine-3-carboxamide], the values for the EC50 in assay [1] (Table A), in assay [1] (Table B) and in assay [2] were less than 10 nM, less than 10 nM and 100 to 1000 nM, respectively. In addition, the “Fold selectivity for SST5 vs SST2” value in assay [1] (Table B) is reported as “++ (++=100 to 499)”.
Turning to `Cc1cccc2[nH]c(-c3cncc(C(=O)N[C@@H](C)C(F)(F)F)c3N3CC[C@](C)(N)C3)nc12` [2-11, 4-[(3S)-3-amino-3-methylpyrrolidin-1-yl]-5-(4-methyl-1H-1,3-benzodiazol-2-yl)-N-[(2S)-1,1,1-trifluoropropan-2-yl]pyridine-3-carboxamide], the EC50 was less than 10 nM in assay [1] (Table A), less than 10 nM in assay [1] (Table B) and 10 to 100 nM in assay [2]. Besides, the “Fold selectivity for SST5 vs SST2” value in assay [1] (Table B) is reported as “+ (+=10 to 99)”.
In the case of `Cc1cccc2[nH]c(-c3cncc(C(=O)NC45CC(C4)C5)c3N3CC[C@](C)(N)C3)nc12` [2-15, 4-[(3S)-3-amino-3-methylpyrrolidin-1-yl]-N-{bicyclo[1,1,1]pentan-1-yl}-5-(4-methyl-1H-1,3-benzodiazol-2-yl)pyridine-3-carboxamide], the EC50 in assay [1] (Table A) was less than 10 nM; in assay [1] (Table B) it was less than 10 nM; in assay [2] it was 100 to 1000 nM. In addition, the “Fold selectivity for SST5 vs SST2” value in assay [1] (Table B) was “++ (++=100 to 499)”.
With `Cc1cccc2[nH]c(-c3cncc(C(=O)N4C5CC6CC(C5)CC4C6)c3N3CC[C@](C)(N)C3)nc12` [2-26, (3S)-1-(3-{2-azatricyclo[3.3.1.1^3,7]decane-2-carbonyl}-5-(4-methyl-1H-1,3-benzodiazol-2-yl)pyridin-4-yl)-3-methylpyrrolidin-3-amine], the EC50 in assay [1] (Table A) was less than 10 nM; in assay [1] (Table B) it was less than 10 nM; in assay [2], 100 to 1000 nM. The “Fold selectivity for SST5 vs SST2” value in assay [1] (Table B) was “+++ (+++=>500)”.
Take `Cc1cccc2[nH]c(-c3cncc(C(=O)N(C)[C@@H](C)C4CC4)c3N3CC[C@](C)(N)C3)nc12` [2-29, 4-[(3S)-3-amino-3-methylpyrrolidin-1-yl]-N-[(1S)-1-cyclopropylethyl]-N-methyl-5-(4-methyl-1H-1,3-benzodiazol-2-yl)pyridine-3-carboxamide]: the EC50 was less than 10 nM in assay [1] (Table A), less than 10 nM in assay [1] (Table B) and 10 to 100 nM in assay [2]. The “Fold selectivity for SST5 vs SST2” value in assay [1] (Table B) was “+ (+=10 to 99)”.
On to `Cc1ccc(F)c2[nH]c(-c3cncc(C(=O)N[C@@H](C)C(F)(F)F)c3N3CC[C@](C)(N)C3)nc12` [2-30, 4-[(3S)-3-amino-3-methylpyrrolidin-1-yl]-5-(7-fluoro-4-methyl-1H-1,3-benzodiazol-2-yl)-N-[(2S)-1,1,1-trifluoropropan-2-yl]pyridine-3-carboxamide], for which the EC50 is less than 10 nM in assay [1] (Table A), less than 10 nM in assay [1] (Table B) and 10 to 100 nM in assay [2]. The “Fold selectivity for SST5 vs SST2” value in assay [1] (Table B) is “+ (+=10 to 99)”.
As for `Cc1cccc2[nH]c(-c3cncc(C(=O)N4CC5CCC4CC5)c3N3CC[C@](C)(N)C3)nc12` [2-35, (3S)-1-(3-{2-azabicyclo[2.2.2]octane-2-carbonyl}-5-(4-methyl-1H-1,3-benzodiazol-2-yl)pyridin-4-yl)-3-methylpyrrolidin-3-amine], the EC50 is less than 10 nM in assay [1] (Table A), less than 10 nM in assay [1] (Table B) and 100 to 1000 nM in assay [2]. Besides, the “Fold selectivity for SST5 vs SST2” value in assay [1] (Table B) is recorded as “++ (++=100 to 499)”.
